In PMC10179972, “New Hybrid Tetrahydropyrrolo[3,2,1-ij]quinolin-1-ylidene-2-thioxothiazolidin-4-ones as New Inhibitors of Factor Xa and Factor XIa: Design, Synthesis, and In Silico and Experimental Evaluation” (Molecules, 2023):

Experiments:
factor XIa = factor XIa (Homo sapiens, UniProt P03951); test: Inhibition of factor XIa, kinetics of hydrolysis of chromogenic substrate S2366; type: biochemical; conditions: for inhibition at 30 µM: 30 μM compound, factor XIa 0.8 nmol/L, S2366 200 μmol/L, pH 8.0, read-out: Percent Inhibition at 30 μM, XIa; for IC50: substrate S2366, buffer solution
Experimental: Compounds 12, 14 and 16 were evaluated for their anticoagulant activity against factors Xa and Xia, and the results are presented in Table 1. For the best Xa and XIa inhibitors, additional measurements were performed to determine the IC50 values. We measured the kinetics of the hydrolysis of the specific substrates S2765 or S2366 by factors Xa and XIa, respectively, in the buffer solution and in the presence of various concentrations of compounds.
(§1) A specific low-molecular-weight chromogenic substrate, S2765 (Z-D-Arg-Gly-Arg-pNA·2HCl), was used in the case of factor Xa, while the substrate S2366 (pyroGlu-Pro-ArgpNA·HCl) (both substrates from Chromogenix, USA) was used for factor XIa.
(§2) A buffer containing 140 mM NaCl, 20 mM HEPES, and 0.1% PEG 6000 (pH 8.0) was placed in the wells of a 96-well plate, followed by the addition of factor Xa (final concentration, 2.5 nmol·L^–1) or XIa (final concentration 0.8 nmol·L^–1), the substrate S2765 (final concentration, 200 μmol·L^–1) or S2366 (final concentration, 200 μmol·L^–1), and a solution of the test compound in DMSO (final concentration, 30 μmol·L^–1; the DMSO content in the well was no more than 2%). The kinetics of the formation of p-nitroaniline were measured using a THERMOmax Microplate Reader (Molecular Devices Corporation, USA) using the absorption of light with a wavelength of 405 nm. The initial rate of substrate degradation was determined from the initial slope of the 4-nitroaniline-formation curve. The rate of substrate degradation by the enzyme in the presence of the inhibitor was expressed as a percentage relative to the rate of substrate degradation in the absence of the inhibitor. The data obtained were processed using GraphPad Prism and OriginPro 8 software.

factor Xa = molecular target: T1, factor Xa (Homo sapiens, UniProt P00742); test: Inhibition of factor Xa, kinetics of hydrolysis of chromogenic substrate S2765; type: biochemical; conditions: for inhibition at 30 µM: 30 μM compound, factor Xa 2.5 nmol/L, S2765 200 μmol/L, pH 8.0, read-out: Percent Inhibition at 30 μM, Xa; for IC50: substrate S2765, buffer solution
T1 construct: followed by the addition of factor Xa (final concentration, 2.5 nmol·L^–1)
Experimental: We measured the kinetics of the hydrolysis of the specific substrates S2765 or S2366 by factors Xa and XIa, respectively, in the buffer solution and in the presence of various concentrations of compounds.
as §1
as §2, with “The kinetics of the formation of p-nitroaniline were measured using a THERMOmax Microplate Reader (Molecular Devices Corporation, USA) using the absorption of light with a wavelength of 405 nm.” left out

factor XIa, sequence (P03951 388-625 limits assumed): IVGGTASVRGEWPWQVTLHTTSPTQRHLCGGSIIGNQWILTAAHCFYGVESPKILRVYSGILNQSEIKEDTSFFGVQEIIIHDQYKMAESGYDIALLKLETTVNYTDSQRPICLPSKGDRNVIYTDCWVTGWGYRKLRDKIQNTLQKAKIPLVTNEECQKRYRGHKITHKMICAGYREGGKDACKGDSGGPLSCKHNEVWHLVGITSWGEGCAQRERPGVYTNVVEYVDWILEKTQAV
factor XIa, sequence (P03951 19-387 partner limits assumed): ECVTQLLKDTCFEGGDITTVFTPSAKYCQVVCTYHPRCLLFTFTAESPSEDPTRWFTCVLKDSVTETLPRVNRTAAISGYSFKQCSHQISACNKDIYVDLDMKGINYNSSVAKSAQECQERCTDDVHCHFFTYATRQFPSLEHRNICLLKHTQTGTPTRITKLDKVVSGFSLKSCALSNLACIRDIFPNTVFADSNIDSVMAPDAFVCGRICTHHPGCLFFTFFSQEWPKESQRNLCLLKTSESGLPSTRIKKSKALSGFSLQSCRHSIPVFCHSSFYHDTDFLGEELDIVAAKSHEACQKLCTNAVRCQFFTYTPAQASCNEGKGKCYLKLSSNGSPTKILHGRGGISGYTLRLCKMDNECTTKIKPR
T1 sequence (P00742 235-488 limits assumed): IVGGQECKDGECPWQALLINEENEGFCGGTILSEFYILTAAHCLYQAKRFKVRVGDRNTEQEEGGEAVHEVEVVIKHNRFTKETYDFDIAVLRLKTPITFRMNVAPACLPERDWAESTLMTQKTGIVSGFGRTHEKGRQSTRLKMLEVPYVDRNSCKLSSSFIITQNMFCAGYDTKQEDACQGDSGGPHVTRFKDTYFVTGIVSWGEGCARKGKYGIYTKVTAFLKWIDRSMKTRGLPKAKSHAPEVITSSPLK
T1 sequence (P00742 41-179 partner limits assumed): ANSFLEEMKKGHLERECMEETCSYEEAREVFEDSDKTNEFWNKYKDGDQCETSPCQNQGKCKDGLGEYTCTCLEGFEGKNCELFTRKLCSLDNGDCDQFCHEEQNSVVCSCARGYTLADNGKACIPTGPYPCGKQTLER

| Compound | inhibition at 30 µM (factor XIa) [%] | inhibition at 30 µM (factor Xa) [%] | IC50 (factor XIa) [µM] | IC50 (factor Xa) [µM] |
| --- | --- | --- | --- | --- |
| C#CCN1C(=O)/C(=C2/C(=O)N3c4c2cc(F)cc4C(C)(c2ccc(Cl)cc2)CC3(C)C)SC1=S (centres unmarked) [14b, (Z)-5-(6-(4-Chlorophenyl)-8-fluoro-4,4,6-trimethyl-2-oxo-5,6-dihydro-4H-pyrrolo[3,2,1-ij]quinolin-1(2H)-ylidene)-3-(prop-2-yn-1-yl)-2-thioxothiazolidin-4-one] | 17 | 49 | – | – |
| CC1CC2(CCCCCC2)N2C(=O)/C(=C3\SC(=S)NC3=O)c3cc(F)cc1c32 (centres unmarked) [12q, (Z)-5-(8′-Fluoro-6′-methyl-2′-oxo-5′,6′-dihydrospiro[cycloheptane-1,4′-pyrrolo[3,2,1-ij]quinolin]-1′(2′H)-ylidene)-2-thioxothiazolidin-4-one] | 91 | 47 | 4.32 ± 0.06 | – |
| CC1(c2ccc(Cl)cc2)CC(C)(C)N2C(=O)/C(=C3\SC(=S)NC3=O)c3cc(F)cc1c32 (centres unmarked) [12k, (Z)-5-(6-(4-Chlorophenyl)-8-fluoro-4,4,6-trimethyl-2-oxo-5,6-dihydro-4H-pyrrolo[3,2,1-ij]quinolin-1(2H)-ylidene)-2-thioxothiazolidin-4-one] | 99 | 99 | 5.24 ± 0.29 | 2.85 ± 0.23 |
| CCN1C(=O)/C(=C2/C(=O)N3c4c2cc(F)cc4C(C)(c2ccc(Cl)cc2)CC3(C)C)SC1=S (centres unmarked) [12m, (Z)-5-(6-(4-Chlorophenyl)-8-fluoro-4,4,6-trimethyl-2-oxo-5,6-dihydro-4H-pyrrolo[3,2,1-ij]quinolin-1(2H)-ylidene)-3-ethyl-2-thioxothiazolidin-4-one] | 0 | 18 | – | – |
| CC1(c2ccccc2)CC(C)(C)N2C(=O)/C(=C3\NC(=S)NC3=O)c3cccc1c32 (centres unmarked) [16c, (Z)-4,4,6-Trimethyl-1-(5-oxo-2-thioxoimidazolidin-4-ylidene)-6-phenyl-5,6-dihydro-4H-pyrrolo[3,2,1-ij]quinolin-2(1H)-one] | 57 | 45 | – | – |
| CCN1C(=O)/C(=C2/C(=O)N3c4c2cc(OC)cc4C(C)CC3(C)C)SC1=S (centres unmarked) [12f, (Z)-3-Ethyl-5-(8-methoxy-4,4,6-trimethyl-2-oxo-5,6-dihydro-4H-pyrrolo[3,2,1-ij]quinolin-1(2H)-ylidene)-2-thioxothiazolidin-4-one] | 5 | 18 | – | – |
| CCN1C(=O)/C(=C2/C(=O)N3c4c2cccc4C(C)(c2ccccc2)CC3(C)C)SC1=S (centres unmarked) [12j, (Z)-3-Ethyl-2-thioxo-5-(4,4,6-trimethyl-2-oxo-6-phenyl-5,6-dihydro-4H-pyrrolo[3,2,1-ij]quinolin-1(2H)-ylidene)thiazolidin-4-one] | 77 | 89 | – | – |
| CC1CC2(CCCC2)N2C(=O)/C(=C3\SC(=S)NC3=O)c3cc(F)cc1c32 (centres unmarked) [12p, (Z)-5-(8′-Fluoro-6′-methyl-2′-oxo-5′,6′-dihydrospiro[cyclopentane-1,4′-pyrrolo[3,2,1-ij]quinolin]-1′(2′H)-ylidene)-2-thioxothiazolidin-4-one] | 77 | 67 | 12.2 ± 0.5 | 3.03 ± 0.18 |
| COc1ccccc1C(=O)Oc1cc2c3c(c1)C(C)CC(C)(C)N3C(=O)/C2=C1\SC(=S)NC1=O (centres unmarked) [12d, (Z)-4,4,6-Trimethyl-2-oxo-1-(4-oxo-2-thioxothiazolidin-5-ylidene)-1,2,5,6-tetrahydro-4H-pyrrolo[3,2,1-ij]quinolin-8-yl 2-methoxybenzoate] | 98 | 63 | 3.79 ± 0.03 | 2.35 ± 0.22 |
| CC1CC(C)(C)N2C(=O)/C(=C3\SC(=S)NC3=O)c3cc(OC(=O)c4ccccc4)cc1c32 (centres unmarked) [12c, (Z)-4,4,6-Trimethyl-2-oxo-1-(4-oxo-2-thioxothiazolidin-5-ylidene)-1,2,5,6-tetrahydro-4H-pyrrolo[3,2,1-ij]quinolin-8-yl benzoate] | 72 | 58 | – | – |
| CC1CC(C)(C)N2C(=O)/C(=C3\SC(=S)NC3=O)c3cccc1c32 (centres unmarked) [12a, (Z)-2-Thioxo-5-(4,4,6-trimethyl-2-oxo-5,6-dihydro-4H-pyrrolo[3,2,1-ij]quinolin-1(2H)-ylidene)thiazolidin-4-one] | 22 | 94 | – | 9.41 ± 0.35 |
| CC1CC(C)(C)N2C(=O)/C(=C3\SC(=S)NC3=O)c3cc(I)cc1c32 (centres unmarked) [12b, (Z)-5-(8-Iodo-4,4,6-trimethyl-2-oxo-5,6-dihydro-4H-pyrrolo[3,2,1-ij]quinolin-1(2H)-ylidene)-2-thioxothiazolidin-4-one] | 12 | 81 | – | 3.53 ± 0.08 |
| CCOc1cc2c3c(c1)C(C)CC(C)(C)N3C(=O)/C2=C1\NC(=S)NC1=O (centres unmarked) [16a, (Z)-8-Ethoxy-4,4,6-trimethyl-1-(5-oxo-2-thioxoimidazolidin-4-ylidene)-5,6-dihydro-4H-pyrrolo[3,2,1-ij]quinolin-2(1H)-one] | 6 | 2 | – | – |
| Cc1cc2c3c(c1)C(C)CC1(CCCCC1)N3C(=O)/C2=C1\SC(=S)NC1=O (centres unmarked) [12o, (Z)-5-(6′,8′-Dimethyl-2′-oxo-5′,6′-dihydrospiro[cyclohexane-1,4′-pyrrolo[3,2,1-ij]quinolin]-1′(2′H)-ylidene)-2-thioxothiazolidin-4-one] | 15 | 48 | – | – |
| CC1(c2ccccc2)CC(C)(C)N2C(=O)/C(=C3\NC(=S)NC3=O)c3cc(F)cc1c32 (centres unmarked) [16d, (Z)-8-Fluoro-4,4,6-trimethyl-1-(5-oxo-2-thioxoimidazolidin-4-ylidene)-6-phenyl-5,6-dihydro-4H-pyrrolo[3,2,1-ij]quinolin-2(1H)-one] | 2 | 17 | – | – |
| C#CCN1C(=O)/C(=C2/C(=O)N3c4c2cc(F)cc4C(C)(c2ccccc2)CC3(C)C)SC1=S (centres unmarked) [14a, (Z)-5-(8-Fluoro-4,4,6-trimethyl-2-oxo-6-phenyl-5,6-dihydro-4H-pyrrolo[3,2,1-ij]quinolin-1(2H)-ylidene)-3-(prop-2-yn-1-yl)-2-thioxothiazolidin-4-one] | 3 | 36 | – | – |
| CC1(c2ccccc2)CC(C)(C)N2C(=O)/C(=C3\SC(=S)NC3=O)c3cc(I)cc1c32 (centres unmarked) [12i, (Z)-5-(8-Iodo-4,4,6-trimethyl-2-oxo-6-phenyl-5,6-dihydro-4H-pyrrolo[3,2,1-ij]quinolin-1(2H)-ylidene)-2-thioxothiazolidin-4-one] | 96 | 75 | 5.04 ± 0.33 | 3.44 ± 0.06 |
| CC1(C)CC2(CCCCC2)N2C(=O)/C(=C3\SC(=S)NC3=O)c3cccc1c32 [12n, (Z)-5-(6′,6′-Dimethyl-2′-oxo-5′,6′-dihydrospiro[cyclohexane-1,4′-pyrrolo[3,2,1-ij]quinolin]-1′(2′H)-ylidene)-2-thioxothiazolidin-4-one] | 91 | 94 | 9.41 ± 0.51 | 2.6 ± 0.5 |
| COc1cc(C(=O)Oc2cc3c4c(c2)C(C)CC(C)(C)N4C(=O)/C3=C2\SC(=S)NC2=O)cc(OC)c1OC (centres unmarked) [12e, (Z)-4,4,6-Trimethyl-2-oxo-1-(4-oxo-2-thioxothiazolidin-5-ylidene)-1,2,5,6-tetrahydro-4H-pyrrolo[3,2,1-ij]quinolin-8-yl 3,4,5-trimethoxybenzoate] | 94 | 49 | 3.74 ± 0.33 | – |
| CC1(c2ccccc2)CC(C)(C)N2C(=O)/C(=C3\SC(=S)NC3=O)c3cc(Br)cc1c32 (centres unmarked) [12h, (Z)-5-(8-Bromo-4,4,6-trimethyl-2-oxo-6-phenyl-5,6-dihydro-4H-pyrrolo[3,2,1-ij]quinolin-1(2H)-ylidene)-2-thioxothiazolidin-4-one] | 98 | 73 | 3.73 ± 0.03 | 2.28 ± 0.23 |
